Reference: patent publication US12221419B2, “Abietanes and methods of making and using the same” (Florida State University Research Foundation, Incorporated., priority 2022, dated 2025)

Columns and labels:
[1] = tested on: glioblastoma cells; assay: activity in glioblastoma cell culture (3D 'tumor' cell growth, FIG. 6); assay type: cell-based; settings: 3D 'tumor' cells, comparator alendronate
From the text: With entry to fully synthetic abietanes in hand, we explored the activity of taxodione (FL-1) and several synthetic analogs (FL-2 and FL-3) in glioblastoma cell culture (FIG. 6). […] Nevertheless, it is clear that a synthetic entry to bioactive molecules that inhibit glioblastoma cell growth has been established. This is a particularly important application because glioblastoma is an invasive brain cancer with a 5-year mean survival rate of only 5.5%. There are few effective treatments beyond surgery and ionizing radiation. Thus, new therapy modalities are urgently needed.

[2] = target: T1, farnesyl diphosphate synthase (Homo sapiens, UniProt P14324); settings: statement from cited literature (ref. 28); cited from earlier work
T1 sequence (P14324 1-419): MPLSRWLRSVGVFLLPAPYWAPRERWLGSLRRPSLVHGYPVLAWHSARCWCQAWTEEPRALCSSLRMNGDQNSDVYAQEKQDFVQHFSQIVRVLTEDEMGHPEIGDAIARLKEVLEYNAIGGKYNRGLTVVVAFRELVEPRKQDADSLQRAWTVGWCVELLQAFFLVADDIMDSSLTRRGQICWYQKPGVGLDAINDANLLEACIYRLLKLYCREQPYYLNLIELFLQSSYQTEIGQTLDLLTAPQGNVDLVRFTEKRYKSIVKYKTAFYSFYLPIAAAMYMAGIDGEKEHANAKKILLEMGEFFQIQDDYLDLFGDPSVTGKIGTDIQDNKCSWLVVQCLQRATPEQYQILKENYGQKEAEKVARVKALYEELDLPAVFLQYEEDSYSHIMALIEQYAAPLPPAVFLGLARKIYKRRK

CC(C)C1=CC2=CC(=O)[C@H]3C(C)(C)CCC[C@]3(C)C2=C(O)C1=O (racemic) [FL-1, (±)-taxodione]
arresting 3D 'tumor' cell growth / inhibiting glioblastoma cell growth [1]: superior to alendronate
inhibitor of farnesyl diphosphate synthase [2]: inhibitor of farnesyl diphosphate synthase
